Some test systems named below: SNB-75 CNS; U251 CNS; COLO 205 colon; SF-539 CNS; HCT-15 colon; HT29 colon; SK-MEL-28 melanoma; OVCAR-4 ovarian; RPMI-8226 leukemia; SK-MEL-5 melanoma.
What all share (assay): NCI-60 cell line screen, 48 h

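In this assay, cells in 96-well plates receive the compound at five concentrations for 48 hours. Endpoints are linearly interpolated between the surrounding concentrations. GI50 marks 50% less growth. At the TGI there is no net growth.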 A value given as a limit tells only on which side of the number the result lay.

In the case of `O=C(CCN1CCCC1)Nc1ccc2c(Nc3ccc(F)cc3)c3ccccc3nc2c1`, the GI50 in the assay with SNB-75 CNS was 1370 nM; in the assay on U251 CNS, 1170 nM; in the assay with COLO 205 colon, 1300 nM; with SF-539 CNS it was 1610 nM; in the assay with HCT-15 colon it was 699 nM; with HT29 colon, 734 nM. In addition, the GI50 was 1.7 µM with SK-MEL-28 melanoma, 1210 nM in the assay on OVCAR-4 ovarian, 981 nM in the assay on RPMI-8226 leukemia and 1530 nM in the assay on SK-MEL-5 melanoma. Besides, the TGI was determined as 2.72 µM in the assay with SNB-75 CNS; 3.03 µM in the assay on U251 CNS; 3.51 µM with COLO 205 colon; 3.05 µM in the assay on SF-539 CNS; 2.53 µM in the assay with HCT-15 colon; 3.72 µM in the assay on HT29 colon. In addition, the TGI was determined as 3.24 µM with SK-MEL-28 melanoma, 3.03 µM with OVCAR-4 ovarian, 5.51 µM in the assay with RPMI-8226 leukemia and 2.88 µM with SK-MEL-5 melanoma.
`COc1ccc(Cn2cc3c(c2-c2ccccc2)CCc2cnoc2-3)cc1`: the GI50 with SNB-75 CNS was 165 nM; in the assay on U251 CNS, 264 nM; in the assay on COLO 205 colon it was 125 nM; in the assay with SF-539 CNS it was 149 nM; in the assay on HCT-15 colon, 127 nM; in the assay with HT29 colon it was 79.7 nM. In addition, the GI50 was 33.9 µM in the assay with SK-MEL-28 melanoma, 470 nM in the assay on OVCAR-4 ovarian, 167 nM with RPMI-8226 leukemia and 47.9 nM in the assay on SK-MEL-5 melanoma. Besides, the TGI in the assay on SNB-75 CNS was over 100 µM; in the assay on U251 CNS, over 100 µM; with COLO 205 colon, 0.394 µM; in the assay on SF-539 CNS, 0.49 µM; in the assay with HCT-15 colon, over 100 µM; in the assay on HT29 colon, 1.58 µM. Also, the TGI with SK-MEL-28 melanoma was over 100 µM; with OVCAR-4 ovarian it was over 100 µM; in the assay with RPMI-8226 leukemia, 0.501 µM; in the assay with SK-MEL-5 melanoma, 0.504 µM.
Turning to `CCN(Cc1ccc(Cl)c(Cl)c1)c1ccc2nc(N)nc(N)c2c1C`, the GI50 in the assay with SNB-75 CNS was 94.5 nM; in the assay on COLO 205 colon it was 148 nM; in the assay with SF-539 CNS, 69.5 nM; in the assay on HT29 colon, under 10 nM; in the assay with SK-MEL-28 melanoma it was 0.157 µM; in the assay with OVCAR-4 ovarian, 1050 nM. Further, the GI50 was 96.8 nM in the assay with RPMI-8226 leukemia and under 10 nM in the assay on SK-MEL-5 melanoma. In addition, the TGI was determined as 2.01 µM in the assay on SNB-75 CNS; 1.69 µM with COLO 205 colon; 1.48 µM with SF-539 CNS; 1.27 µM in the assay with HT29 colon; 1.83 µM in the assay on SK-MEL-28 melanoma; 16.1 µM in the assay on OVCAR-4 ovarian. The TGI with RPMI-8226 leukemia was 2.83 µM; in the assay with SK-MEL-5 melanoma it was 1.45 µM.
As to `CCCCC[C@@H]1CCCC2NC(CCCCCO[Si](c3ccccc3)(c3ccccc3)C(C)(C)C)CCC21` (some centres undefined), the TGI was 30 µM with SNB-75 CNS; 27.8 µM in the assay on U251 CNS; 29.8 µM in the assay on SF-539 CNS; 25.7 µM with HCT-15 colon; 16.1 µM in the assay on HT29 colon; 32.2 µM in the assay on SK-MEL-28 melanoma. In addition, the values for the TGI in the assay on OVCAR-4 ovarian, in the assay on RPMI-8226 leukemia and in the assay on SK-MEL-5 melanoma were 21 µM, 22.2 µM and 35.3 µM, respectively.
Turning to `O=CNC(Cc1cnc[nH]1)C(=O)O` (centres undefined), the TGI in the assay on SNB-75 CNS, in the assay on U251 CNS, in the assay with COLO 205 colon, in the assay on SF-539 CNS, with HCT-15 colon and in the assay on HT29 colon was over 100 µM each time. Further, the TGI with SK-MEL-28 melanoma, in the assay on OVCAR-4 ovarian, in the assay with RPMI-8226 leukemia and with SK-MEL-5 melanoma was over 100 µM in each case.
With `CC1(Cl)C(=O)NC(=O)N([C@H]2C[C@H](O)[C@@H](CO)O2)C1N=[N+]=[N-]` (some centres undefined), the TGI in the assay with SNB-75 CNS, with U251 CNS, in the assay with COLO 205 colon, in the assay with SF-539 CNS, in the assay with HCT-15 colon and with HT29 colon was over 100 µM each time. Further, the TGI in the assay with SK-MEL-28 melanoma, in the assay with OVCAR-4 ovarian, in the assay on RPMI-8226 leukemia and with SK-MEL-5 melanoma was over 100 µM in each case.
As for `CCOC(=O)c1ccc(N=Cc2ccc(N(CCC#N)S(=O)(=O)c3ccccc3)cc2C)cc1`, the TGI in the assay with SNB-75 CNS is over 100 µM; with U251 CNS, over 100 µM; with COLO 205 colon it was 52.9 µM; in the assay on SF-539 CNS, over 100 µM; with HCT-15 colon it was over 100 µM; in the assay on HT29 colon it was over 100 µM. Moreover, the TGI with SK-MEL-28 melanoma, in the assay on OVCAR-4 ovarian, in the assay with RPMI-8226 leukemia and in the assay on SK-MEL-5 melanoma was over 100 µM each time.
For the molecule `COc1ccc(C2=C(c3ccc(OC)cc3)C(=O)OC2)cc1`, the GI50 with SNB-75 CNS was 3160 nM; with U251 CNS it was 421 nM; with COLO 205 colon, 1380 nM; with SF-539 CNS, 745 nM; in the assay on HCT-15 colon it was 514 nM; in the assay with HT29 colon it was 437 nM. Further, the GI50 with SK-MEL-28 melanoma is 6.29 µM; with OVCAR-4 ovarian it was 16000 nM; with RPMI-8226 leukemia, 1710 nM; in the assay on SK-MEL-5 melanoma, 472 nM. Also, the TGI in the assay on SNB-75 CNS was over 100 µM; in the assay on U251 CNS it was 3.46 µM; in the assay on COLO 205 colon, over 100 µM; in the assay on SF-539 CNS, 6.67 µM; in the assay on HCT-15 colon it was 8.27 µM; with HT29 colon, over 100 µM. Moreover, the TGI in the assay with SK-MEL-28 melanoma is over 100 µM; with OVCAR-4 ovarian, over 100 µM; in the assay with RPMI-8226 leukemia it was 11.4 µM; with SK-MEL-5 melanoma, 5.9 µM.
Take `O=C1c2ccccc2C(=O)N1c1ccc(Cc2ccc(N3C(=O)c4ccccc4C3=O)cc2)cc1`: the TGI in the assay on SNB-75 CNS, in the assay with U251 CNS, in the assay with COLO 205 colon, in the assay with SF-539 CNS, in the assay on HCT-15 colon and in the assay with HT29 colon was over 100 µM in each case. Further, the TGI in the assay on SK-MEL-28 melanoma, with OVCAR-4 ovarian, in the assay on RPMI-8226 leukemia and in the assay with SK-MEL-5 melanoma was over 100 µM in each case.
Regarding `CC(=O)OC1(Sc2ccccc2)CC2[C@H]3COC(C)(C)O[C@H]3CC[C@@]2(C)CC1=O` (some centres undefined), the TGI in the assay on SNB-75 CNS was 81.4 µM; in the assay on COLO 205 colon it was over 100 µM; in the assay with SF-539 CNS, 95.9 µM; with HCT-15 colon, over 100 µM; with HT29 colon, over 100 µM; in the assay on SK-MEL-28 melanoma, over 100 µM. In addition, the TGI is over 100 µM in the assay with OVCAR-4 ovarian, 69.7 µM in the assay on RPMI-8226 leukemia and 70 µM in the assay on SK-MEL-5 melanoma.

(Values after PubChem BioAssay (NCI).)
